{"source": "patent US11471459B2", "about": "“Compounds with enhanced anti-tumor effects” (FONDAZIONE PER L'ISTITUTO ONCOLOGICO DI RICERCA (IOR), priority 2018, dated 2022)", "key": {"JURKAT": {"system": "JURKAT", "test": "Proliferation MTT assay, 72 h", "assay_type": "cell-based", "conditions": "Homo sapiens, JURKAT (T Cell Leukemia), 72 h exposure", "description": "(§1) Thirty-nine cell lines derived from activated B cell-like (ABC) (n=3) and germinal center B Cell (GCB) (n=12) diffuse large B cell lymphoma (DLBCL), mantle cell lymphoma (MCL) (n=9), chronic lymphocytic leukemia (CLL) (n=2), Hodgkin lymphoma (HL) (n=4), cutaneous T cell lymphoma (CTCL) (n=3), peripheral T cell lymphoma (PTCL) (n=1), anaplastic large T cell lymphoma (ALCL) (n=4), acute T cell leukemia (ATCL) (n=1) were cultured according to the recommended conditions. All media were supplemented with fetal bovine serum (10%), Penicillin-Streptomycin-Neomycin (˜5,000 units penicillin, 5 mg streptomycin and 10 mg neomycin/mL, Sigma) and L-glutamine (1%).\n(§2) EG-011 was dissolved in dimethyl sulphoxide (DMSO) to obtain a stock concentration of 10 mM for in vitro experiments. EG-011 was dissolved in 25% hydroxypropyl beta cyclodextrin (HP-β-CD) in water and adjusted at pH 6.0 using NaOH (0.1 N) and HCl (0.1 N) for in vivo experiments. Application volume was 4.5 mL/kg (100 mg in 4.5 mL), and mice received 200 microliters (corresponding to 200 mg/kg) though intra peritoneal i.p. injection, once per day and five days per week.\n(§3) Cells were seeded in 96-well plates (non-tissue culture treated) at a density of 10,000 cells for all cell lines. Each compound was dissolved in dimethyl sulphoxide (DMSO). For treatment of cells, compounds were serially diluted in the appropriate tissue culture medium, at a range of 20 mcM-78 nM following a 1:2 dilution factor and added to cells (in three replicates). Cells were incubated for 72 hours at 37° C., 5% CO2. DMSO alone was added to negative control (untreated) cells. Wells containing medium only were included on each plate and served as blanks for absorbance readings. MTT (Sigma-Aldrich Chemie GmbH, Buchs, Switzerland) was prepared as a 5 mg/ml stock in PBS and filter-sterilized. MTT solution (22 μL) was added to each well and tissue culture plates were incubated at 37° C. for 4 hours. Cells were then lysed with 25% SDS lysis buffer and absorbance was read at 570 nm using an AD340 plate reader (Beckman Coulter International SA, Switzerland). Absorbance values were expressed in percentage of proliferating cells in comparison with control cells (control corresponds to 100%)."}, "OCI-LY-3": {"system": "OCI-LY-3", "test": "Proliferation MTT assay, 72 h", "assay_type": "cell-based", "conditions": "Homo sapiens, OCI-Ly3, OCI-LY-3 (ABC-DLBCL), 72 h exposure", "description": "as §1, §2, §3"}, "HUT-78": {"system": "HUT-78", "test": "Proliferation MTT assay, 72 h", "assay_type": "cell-based", "conditions": "Homo sapiens, HuT78, HUT-78 (T Cell - CTCL), 72 h exposure", "description": "as §1, §2, §3"}, "MEC1": {"system": "MEC1", "test": "Proliferation MTT assay, 72 h", "assay_type": "cell-based", "conditions": "Homo sapiens, MEC1 (CLL), 72 h exposure", "description": "as §1, §2, §3"}, "KARPAS-299": {"system": "KARPAS-299", "test": "Proliferation MTT assay, 72 h", "assay_type": "cell-based", "conditions": "Homo sapiens, KARPAS-299 (T Cell - ALCL), 72 h exposure", "description": "as §1, §2, §3"}, "FEPD": {"system": "FEPD", "test": "Proliferation MTT assay, 72 h", "assay_type": "cell-based", "conditions": "FEPD (T Cell-PTCL), 72 h exposure", "description": "as §1, §2, §3"}, "OCI-LY-10": {"system": "OCI-LY-10", "test": "Proliferation MTT assay, 72 h", "assay_type": "cell-based", "conditions": "Homo sapiens, OCI-Ly10, OCI-LY-10 (ABC-DLBCL), 72 h exposure", "description": "as §1, §2, §3"}, "JEKO1": {"system": "JEKO1", "test": "Proliferation MTT assay, 72 h", "assay_type": "cell-based", "conditions": "Homo sapiens, JeKo-1, JEKO1 (MCL), 72 h exposure", "description": "as §1, §2, §3"}, "UPN1": {"system": "UPN1", "test": "Proliferation MTT assay, 72 h", "assay_type": "cell-based", "conditions": "UPN1 (MCL), 72 h exposure", "description": "as §1, §2, §3"}, "FARAGE": {"system": "FARAGE", "test": "Proliferation MTT assay, 72 h", "assay_type": "cell-based", "conditions": "FARAGE (GCB-DLBCL), 72 h exposure", "description": "as §1, §2, §3"}, "SU-DHL-8": {"system": "SU-DHL-8", "test": "Proliferation MTT assay, 72 h", "assay_type": "cell-based", "conditions": "Homo sapiens, SU-DHL-8 (GCB-DLBCL), 72 h exposure", "description": "as §1, §2, §3"}, "GRANTA519": {"system": "GRANTA519", "test": "Proliferation MTT assay, 72 h", "assay_type": "cell-based", "conditions": "Homo sapiens, Granta-519, GRANTA519 (MCL), 72 h exposure", "description": "as §1, §2, §3"}, "L-82": {"system": "L-82", "test": "Proliferation MTT assay, 72 h", "assay_type": "cell-based", "conditions": "L-82 (T Cell - ALCL), 72 h exposure", "description": "as §1, §2, §3"}, "MINO": {"system": "MINO", "test": "Proliferation MTT assay, 72 h", "assay_type": "cell-based", "conditions": "Homo sapiens, MINO (MCL), 72 h exposure", "description": "as §1, §2, §3"}, "KM-H2": {"system": "KM-H2", "test": "Proliferation MTT assay, 72 h", "assay_type": "cell-based", "conditions": "Homo sapiens, KM-H2 (HL), 72 h exposure", "description": "as §1, §2, §3"}, "H9": {"system": "H9", "test": "Proliferation MTT assay, 72 h", "assay_type": "cell-based", "conditions": "Homo sapiens, H9 (T Cell - CTCL), 72 h exposure", "description": "as §1, §2, §3"}, "Z138": {"system": "Z138", "test": "Proliferation MTT assay, 72 h", "assay_type": "cell-based", "conditions": "Homo sapiens, Z-138, Z138 (MCL), 72 h exposure", "description": "as §1, §2, §3"}, "SU-DHL-10": {"system": "SU-DHL-10", "test": "Proliferation MTT assay, 72 h", "assay_type": "cell-based", "conditions": "Homo sapiens, SU-DHL10, SU-DHL-10 (GCB-DLBCL), 72 h exposure", "description": "as §1, §2, §3"}, "Karpas-422": {"system": "Karpas-422", "test": "Proliferation MTT assay, 72 h", "assay_type": "cell-based", "conditions": "Homo sapiens, Karpas-422 (GCB-DLBCL), 72 h exposure", "description": "as §1, §2, §3"}, "TOLEDO": {"system": "TOLEDO", "test": "Proliferation MTT assay, 72 h", "assay_type": "cell-based", "conditions": "Homo sapiens, TOLEDO (GCB-DLBCL), 72 h exposure", "description": "as §1, §2, §3"}, "AM-HLH": {"system": "AM-HLH", "test": "Proliferation MTT assay, 72 h", "assay_type": "cell-based", "conditions": "AM-HLH (HL), 72 h exposure", "description": "as §1, §2, §3"}, "39 lymphoma cell lines": {"system": "39 lymphoma cell lines", "test": "Proliferation MTT assay, median across the 39 cell lines", "assay_type": "cell-based", "conditions": "95% C.I. 100-20000 nM, 72 h", "description": "as §1, with “(1%). […]” for “(1%).”\nCells were seeded in 96-well plates (non-tissue culture treated) at a density of 10,000 cells for all cell lines. […] Wells containing medium only were included on each plate and served as blanks for absorbance readings. […] Cells were then lysed with 25% SDS lysis buffer and absorbance was read at 570 nm using an AD340 plate reader (Beckman Coulter International SA, Switzerland). Absorbance values were expressed in percentage of proliferating cells in comparison with control cells (control corresponds to 100%).\nBinomial exact 95% confidence intervals (95% C.I.s) were calculated for median percentages. Differences in IC50 values among lymphoma subtypes were calculated using the t-Student test. […]"}, "[1]": {"system": "human Mantle cell lymphoma REC1 cells", "test": "Xenograft experiment, REC1 model", "assay_type": "in vivo", "conditions": "200 mg/Kg i.p. once per day, 5 days per week", "description": "as §2\nNOD-Scid (NOD.CB17-Prkdcscid/NCrHsd) mice were purchased from Harlan Laboratory (five-six weeks of age, approximately 20 g body weight). Mice maintenance and animal experiments were performed under institutional guidelines established for the Animal Facility and with study protocols approved by the local Cantonal Veterinary Authority. Mice were subcutaneously engrafted with 15×10^6 of human Mantle cell lymphoma REC1 cells and divided into two experimental groups. Starting with tumors of 180 mm^3 volume, mice underwent treatment with single agent while controls received vehicle only. EG-011 was administered 5 days per week at the dose of 200 mg/kg (200 microliters) though i.p. injection."}, "OCI-LY-19": {"system": "OCI-LY-19", "test": "Propidium iodide cell cycle staining", "assay_type": "cell-based", "conditions": "OCI-LY-19, 500 and 2000 nM, 72 h", "description": "Lymphoma cells (10^6 per condition) were fixed in cold 70% ethanol (for at least 30 minutes at 4° C.), added dropwise to the cell pellet while vortexing. Cells were washed ×2 in PBS and Spin at 2000 rpm; supernatant was discarded and cells suspended in PBS (0.5 mL) and treated with Ribonuclease (50 μl of 100 μg/mL RNase). Then 200 μl of propidium iodide (50 μg/ml) were added and data acquisition was performed by using BD FACS-Canto II."}}, "data": [{"smiles": "C=CC(=O)N1CCCC(n2c(=O)c3ncccc3n(Cc3ccc(Oc4ccccc4)cc3)c2=O)C1", "note": "(centres unmarked) [EG-011, 1-[(4-phenoxyphenyl)methyl]-3-(1-prop-2-enoyl-3-piperidyl)pyrido[3,2-d]pyrimidine-2,4-dione]", "values": [{"measurement": "IC50", "setting": "JURKAT", "result": 15000, "unit": "nM"}, {"measurement": "IC50", "setting": "OCI-LY-3", "result": 10000, "unit": "nM"}, {"measurement": "IC50", "setting": "HUT-78", "result": 1500, "unit": "nM"}, {"measurement": "IC50", "setting": "MEC1", "result": 8000, "unit": "nM"}, {"measurement": "IC50", "setting": "KARPAS-299", "result": 20000, "unit": "nM"}, {"measurement": "IC50", "setting": "FEPD", "result": 3000, "unit": "nM"}, {"measurement": "IC50", "setting": "OCI-LY-10", "result": 5000, "unit": "nM"}, {"measurement": "IC50", "setting": "JEKO1", "result": 4000, "unit": "nM"}, {"measurement": "IC50", "setting": "UPN1", "result": 120, "unit": "nM"}, {"measurement": "IC50", "setting": "FARAGE", "result": 2000, "unit": "nM"}, {"measurement": "IC50", "setting": "SU-DHL-8", "result": 300, "unit": "nM"}, {"measurement": "IC50", "setting": "GRANTA519", "result": 250, "unit": "nM"}, {"measurement": "IC50", "setting": "L-82", "result": 2000, "unit": "nM"}, {"measurement": "IC50", "setting": "MINO", "result": 100, "unit": "nM"}, {"measurement": "IC50", "setting": "KM-H2", "result": 2500, "unit": "nM"}, {"measurement": "IC50", "setting": "H9", "result": 1000, "unit": "nM"}, {"measurement": "IC50", "setting": "Z138", "result": 20000, "unit": "nM"}, {"measurement": "IC50", "setting": "SU-DHL-10", "result": 300, "unit": "nM"}, {"measurement": "IC50", "setting": "Karpas-422", "result": 1500, "unit": "nM"}, {"measurement": "IC50", "setting": "TOLEDO", "result": 600, "unit": "nM"}, {"measurement": "IC50", "setting": "AM-HLH", "result": 18000, "unit": "nM"}, {"measurement": "IC50", "setting": "39 lymphoma cell lines", "result": 2500, "unit": "nM"}, {"measurement": "body weight of treated animals (in vivo toxicity)", "setting": "[1]", "result": "no reduction in the body weight"}, {"measurement": "tumor growth (volume) versus control", "setting": "[1]; Day 6, Day 7, Day 9, P<0.05", "result": "delayed tumor growth"}, {"measurement": "tumor weight versus control", "setting": "[1]; P<0.001 (FIG. 8)", "result": "delayed"}, {"measurement": "cells in the sub-GO phase (dead cells)", "setting": "OCI-LY-19", "result": "dose dependent increase of the cells in the sub-GO phase"}]}]}
